According to the NIST ThermoML archive (doi:10.1021/acs.jced.7b00900):
Numbers after ± are expanded uncertainties.

Assay: of the first substance listed, at infinite dilution; xn = mol fraction of the nth substance listed
Conditions: 298.15 K; 100 kPa; Liquid; isoperibol calorimeter; x1 = 0

Structure (SMILES) | partial molar enthalpy
CCCCOCCCN [3-butoxy-1-propanamine] + O | -30.52 ± 0.24 kJ/mol
CCOCCCN [3-ethoxy-1-propanamine] + O | -27.54 ± 0.22 kJ/mol
